From US20070053984A1, “Topical gels compositions” (priority 2005, published 2007)
Read-outs that look alike come from different tables or passages of the source.

Legend:
skin of minipigs [1] = test: C14-labeled compositions applied to skin of minipigs, punch biopsies and serum samples; details: 15% in 60% alcohol, 1% ULTREZ 10, 24% water; for Diffusion Rate (1 = high, 5 = low): 0.2 gm per cm^2 skin, biopsies 30 seconds to 24 hours; for Systemic Levels (1 = high, 5 = low): serum samples
[2] = system: pseudofolliculitis barbae (PFB); test: 10-week double blind, placebo-controlled, cross-over clinical trial in PFB; format: in vivo, human; details: 15% in 60% alcohol, 1% ULTREZ 10, 24% water; PFB subjects
Excerpt: PFB efficacy is examined by a 10-week double blind, placebo-controlled, cross-over clinical trial. […] Papules, pustules, and ingrown hairs as defined below are counted and recorded. The primary objectives of this study are: • To determine the efficacy of various NSAID compositions applied at various intervals ranging from every other day to twice per day for five weeks in reducing the signs and symptoms of PFB; and • To determine the safety and tolerability of the various NSAID compositions. Papules, pustules, and ingrown hairs as defined below are counted and recorded. Lesions are counted on the neck, lower left and right cheeks, and jaw line (beard area). The same qualified physician completes the assessment at each visit. Each assessment is performed independent of previous assessments. Subjects have a total of at least 10 (for moderate) of 2 (for mild) follicular papules, pustules, or ingrown hairs at the Baseline Visit to be admitted to the study. Inflammatory and/or nodulocystic lesions, erythema, and hyperpigmentation are assessed according to the following six-point Likert (categorical) scale: • 0 None: […] Rare noninflammatory lesions present (lesions must be resolving and may be hyperpigmented, though not pink/red). Barely perceptible elevation (discernable by touch only). • 2 Mild: Noninflammatory lesions predominate, with few inflammatory papules/pustules. Light red color. Visible but mild elevation. No nodulocystic lesions. • 3 Moderate: Some noninflammatory lesions are present with multiple inflammatory lesions evident. Definite lesion redness and elevation. There may or may not be one small nodulocystic lesion. • 4 Severe: Highly inflammatory lesions predominate. Deep intense red color. Marked dermal swelling and in duration in widespread areas. There may or may not be a few nodulocystic lesions. • 5 Very Severe: Many nodulocystic lesions. Results are recorded in the source document and on the appropriate CRF. The same qualified physician will complete the assessment at each visit. Each assessment should be performed independent of previous assessments. Subjects must have a rating of at least moderate (3) at the Baseline Visit to be admitted to the study. All subjects are asked to evaluate specific PFB symptoms of itch, pain, and shaving discomfort, as well as the overall condition of their PFB at the Baseline, and weekly thereafter (“Subject's Assessment of Symptoms”). […] Global Assessment of Improvement. Subjects are asked to compare the overall condition of their PFB at the week 2, 4, and 6 visits with the overall condition before treatment using the following five-point Likert (categorical) scale: • 2 Overall condition and shaving comfort much better than before treatment. • 1 Overall condition and shaving comfort slightly better than before treatment. • 0 Overall condition and shaving comfort unchanged, same as before treatment. • −1 Overall condition and shaving comfort slightly worse than before treatment. • […] than before treatment. Each assessment is performed independent of previous assessments. The prodrug compositions are tested on PFB subjects according to Example 22 including pharmacokinetic analysis.

[3] = Prodrug (ibuprofen ethyl ester) generation upon storage, HPLC; format: physicochemical; details: compositions similar to 1a, presence or absence of salicylic acid
Method: It has been discovered that, in one embodiment, compositions of the present invention, upon storage, result in the generation of a prodrug form of the active ingredient. Such prodrug formation results from reaction of a carboxylic acid group of the active drug with the alcoholic solvent to form an ester linkage.
HPLC analysis was performed on composition la stored for 3 months at 25° C. A new peak (i.e., the prodrug) distinct from the ibuprofen peak was detected within the chromatographic profile.
Next, two grams of composition 1a were diluted in twenty-five milliliters of 50:50) water:acetonitrile. The solution was centrifuged and the supernatant collected or analysis.
Chromatography was conducted as follows: • Pumps: Hewlett Packard Model 1100 Binary Systems • Solvent A: Water • Solvent B: Acetonitrile • Gradient: Start 40% B • Raise to 60% B at 20 minutes • Raise to 90% B at 40 minutes • Flow Rate: 1.0 ml/min • Stationary Phase ZORBAX® CS (4.6×150 mm) • Column Temperature: 25 C • Injection volume […]
Sequential detection was performed by UV absorbance using an HP diode array detector followed by ESI-MS […] a Sciex QSTAR®/Pulsar quadrupole-TOF mass spectrometer operating in either the positive and negative ion modes.

skin of minipigs [4] = details: minipig, in vivo

Diffusion Rate (1 = high, 5 = low) (skin of minipigs [1]) | Systemic Levels (1 = high, 5 = low) (skin of minipigs [1]) | effect on rate of prodrug formation [3] | Diffusion Rate (1 = high, 5 = low) (skin of minipigs [4]) | Systemic Levels (1 = high, 5 = low) (skin of minipigs [4]) | Compound | Efficacy (1 = high, 5 = low) [2]
3 | 3 |  |  |  | CC(C)OC(=O)C(C)c1cccc(C(=O)c2ccccc2)c1 (stereo not drawn) [ketoprofen isopropyl ester] | 3
 | 2 |  |  |  | CC(C(=O)O)c1cccc(C(=O)c2ccccc2)c1 (stereo not drawn) [ketoprofen, reference compound] | 5
 |  | increases the rate of prodrug formation |  |  | O=C(O)c1ccccc1O [salicylic acid] | 

Second part, the compound before the results:

Compound | Diffusion Rate (1 = high, 5 = low) (skin of minipigs [1]) | Systemic Levels (1 = high, 5 = low) (skin of minipigs [1]) | effect on rate of prodrug formation [3] | Diffusion Rate (1 = high, 5 = low) (skin of minipigs [4]) | Systemic Levels (1 = high, 5 = low) (skin of minipigs [4]) | Efficacy (1 = high, 5 = low) [2]
ethylisobutylphenyl-propionate [ibuprofen ethylester] | 2 | 4 |  |  |  | 2
CC(C)Cc1ccc(C(C)C(=O)OC(C)C)cc1 (stereo not drawn) [ibuprofen isopropyl ester] | 1 | 5 |  |  |  | 1
CCOC(=O)C(C)c1cccc(C(=O)c2ccccc2)c1 (stereo not drawn) [ketoprofen ethylester] |  |  |  | 3 | 3 | 3
